Source: US10835500B2, “Medicament for accelerated wound healing” (Symrise AG, priority 2014, dated 2020)

Key:
Type in all cases: cell-based, human
[1] = test system: IL-6, IL-8, tumor necrosis factor; experiment: Quantitative real-time PCR of the other interleukins in HaCaT cells; conditions: 6 or 24 hours, 500 μM
Description: In order to investigate interleukin secretion, quantitative real-time PCR was first carried out. For this purpose, RNA from HaCaT cells was used that had previously been stimulated for 6 or 24 hours with Sandalore®. Detection was carried out with specific primers of various interleukins (IL-1α, IL-1β, IL-6, IL-8) and tumor necrosis factor (TNF▪). […] In order to corroborate the results, an ELISA assay was carried out, in which the secreted interleukins in the supernatant of the cells can be detected by means of an immunological reaction. By means of the assay used, secretion of the interleukins (IL-1α, IL-1β, IL-2, IL-4, IL-6, IL-8, IL-10, IL-12, and IL-17α), TNFα, γ-interferon (IFNγ), and granulocyte macrophage colony-stimulating factor (GMCSF) was investigated.
Investigation of interleukin secretion and phosphorylation of Akt protein kinase after Sandalore® stimulation. A) Investigation of the regulation of interleukins in HaCaT cells by means of qRT-PCR after stimulation with Sandalore® (500 μM) for 6 h and 24 h. 0.1% DMSO was used as a control. GAPDH was used as a reference gene, and the relative expression between untreated and stimulated cells was determined. Mean values including standard error. n=3 experiments. […] The measured optical density of the treated cells at 450 nm was expressed relative to the background. […]

p38 MAPK = experiment: Western Blot, phosphorylation of p38 MAPK in HaCaT cells; conditions: 500 μM
Description: (§1) In the following, an investigation was to be conducted to determine whether a MAPK signalling pathway is activated by Sandalore® stimulation in skin cells, and if so, which pathway is involved. For detection, HaCaT cells were stimulated for 0-30 min with 500 μM of Sandalore®, and the proteins were then isolated and used in Western Blot assays.
In order to reveal a possible interaction of the two MAPK signalling pathways, ERK1/2 phosphorylation in the presence of the p38 MAPK inhibitor SB203580 and p38 MAPK phosphorylation in the presence of the ERK1/2 MAPK inhibitor U0126 were investigated.
A) Western Blot for investigating the phosphorylation of the MAP kinases in HaCaT cells stimulated for 0, 5, 15 and 30 min with Sandalore®(500 μM). […] ERK1/2: 42/44 kDa; p38: 43 kDa; JNK/SAPK: 46/54 kDA; ▪-tubulin: 52 kDa. B) Quantitative evaluation of p38 and ERK1/2 phosphorylation of HaCaT cells stimulated for 30 min with Sandalore®(500 μM) or additionally with the p38 inhibitor 5B203580 (10 μM) or ERK1/2 inhibitor U0126 (10 μM). For evaluation, the ratio of the phosphorylated (p) and unphosphorylated proteins was established and compared to that of untreated cells. Mean values including standard error. Mann-Whitney U test. *: p<0.05; ***: p<0.001. In C), the inhibitors of the respective other MAP kinase were used, and phosphorylation was compared to the cells stimulated with Sandalore® (500 μM) alone. Mean values including standard error. Mann-Whitney U test. *: p<0.05. The Western Blot analyses were carried out with three different protein isolations.

ERK1/2 MAPK = experiment: Western Blot, phosphorylation of ERK1/2 MAPK in HaCaT cells; conditions: 500 μM
Description: as §1
In order to reveal a possible interaction of the two MAPK signalling pathways, ERK1/2 phosphorylation in the presence of the p38 MAPK inhibitor SB203580 and p38 MAPK phosphorylation in the presence of the ERK1/2 MAPK inhibitor U0126 were investigated. Phosphorylation was increased for both kinases in the presence of the respective inhibitors compared to the cells stimulated with Sandalore® only. This effect was significant for p38 MAPK (FIG. 17c).
Effect of Sandalore® stimulation on phosphorylation of MAP kinases in skin cells. A) Western Blot for investigating the phosphorylation of the MAP kinases in HaCaT cells stimulated for 0, 5, 15 and 30 min with Sandalore®(500 μM). In order to confirm uniform protein volume, ▪-tubulin was used as a control. ERK1/2: 42/44 kDa; p38: 43 kDa; JNK/SAPK: 46/54 kDA; ▪-tubulin: 52 kDa. B) Quantitative evaluation of p38 and ERK1/2 phosphorylation of HaCaT cells stimulated for 30 min with Sandalore®(500 μM) or additionally with the p38 inhibitor 5B203580 (10 μM) or ERK1/2 inhibitor U0126 (10 μM). For evaluation, the ratio of the phosphorylated (p) and unphosphorylated proteins was established and compared to that of untreated cells. Mean values including standard error. Mann-Whitney U test. *: p<0.05; ***: p<0.001. In C), the inhibitors of the respective other MAP kinase were used, and phosphorylation was compared to the cells stimulated with Sandalore® (500 μM) alone. Mean values including standard error. Mann-Whitney U test. *: p<0.05. The Western Blot analyses were carried out with three different protein isolations.

## CC1=CCC(CCC(C)C(C)O)C1(C)C (centres unmarked) [Sandalore®]
[1]
  expression rate of the other interleukins: no increase in the expression rate
p38 MAPK; 30-minute stimulation
  phosphorylation of p38 MAPK, quantification: significant increase
p38 MAPK; within 5-30 min
  phosphorylation of p38 MAPK: increased phosphorylation
ERK1/2 MAPK; 30-minute stimulation
  phosphorylation of ERK1/2 MAPK, quantification: significant increase
ERK1/2 MAPK; within 5-30 min
  phosphorylation of ERK1/2 MAPK: increased phosphorylation
